Measured values: patent publication US12611387B2, “Compound and composition for inducing neuroprotection” (REST THERAPEUTICS, priority 2020, dated 2026)

What was measured:
IL-6 = IL-6 ELISA in hippocampus, Aβ25-35 oligomer neuroprotection design; assay type: in vivo; details: 0.3 mg/Kg i.p., compared to intoxicated but untreated mice
Method: (§1) The neuroprotective effect of the compounds, i.e. the ability thereof to protect cells from Aβ25-35 oligomer neurotoxicity and neurodegeneration, is also tested (FIG. 10). The test compounds are thus administered on the same day as the injection of the Aβ25-35 oligomers and are continued to be administered on a daily basis up to day 7 after the injection of the oligomers, at which time the mice are subjected to the YMT, PAT, MWT or ORT. The brain's anatomy is analysed and neuronal cells are counted by immunohistochemistry on mice sacrificed at D13. The biochemical analyses for the quantification of markers of oxidative stress and apoptosis were carried out at D16 on a group of mice that had been subjected to the WMT (FIG. 10).
(§2) Their brains were removed, and the hippocampi were isolated, weighed and frozen at −80° C. awaiting biochemical analysis.
Interleukin 6 (IL-6), a cytokine inflammatory marker, and the levels of the apoptosis markers Bcl2 and Bax proteins were measured in mouse hippocampi by the ELISA tests listed in Table 1 hereinbelow. Bcl2 is often referred to as an anti-apoptotic marker and Bax as a pro-apoptotic marker. […] After centrifugation (10,000 g, 5 min, 4° C.), the supernatants containing the markers to be measured were aliquoted and stored at −80° C. until the ELISA test was carried out according to the supplier's instructions. […]

[1] = test system: Aβ25-35 oligomer-intoxicated mice; experiment: Passive avoidance test, neuroprotection design; assay type: in vivo; details: doses 0.03; 0.1; 0.3; 1.0 and 3 mg/Kg i.p., neuroprotection design (not shown)
Method: as §1
This test measures non-spatial (contextual) long-term memory. The apparatus used for this test was a box with two compartments (15×20×15 cm high), one illuminated with white PVC walls and the other in the dark with black PVC walls and a grid floor. A guillotine door separated the compartments. A 60 W lamp was positioned 40 cm above the box and illuminated the white compartment. […] The time taken by the mouse to re-enter the darkened compartment (STL-Tg) and the number of vocalizations were recorded. […] After 5 s the door was raised, the step-through latency (STL-R), i.e. the time it took the mouse to enter the darkened compartment, was measured. […]

lipid peroxidation = experiment: Lipid peroxidation in hippocampus, Aβ25-35 oligomer neuroprotection design; assay type: in vivo, mice; details: 0.3 mg/Kg
Method: The neuroprotective effect of the compounds, i.e. the ability thereof to protect cells from Aβ25-35 oligomer neurotoxicity and neurodegeneration, is also tested (FIG. 10). The test compounds are thus administered on the same day as the injection of the Aβ25-35 oligomers and are continued to be administered on a daily basis up to day 7 after the injection of the oligomers, at which time the mice are subjected to the YMT, PAT, MWT or ORT. The brain's anatomy is analysed and neuronal cells are counted by immunohistochemistry on mice sacrificed at D13. The biochemical analyses for the quantification of markers of oxidative stress and apoptosis were carried out at D16 on a group of mice that had been subjected to the WMT (FIG. 10). […]
The amount of hydroperoxide present in the samples was measured by quantifying the Fe^3+-xylenol orange complex: in an acidic medium, hydroperoxides oxidise the Fe^2+ to Fe^3+. The latter forms a coloured complex with xylenol orange, the formation whereof was quantified by measuring its absorbance at 580 nm.
After thawing, the hippocampi were homogenised in cold methanol (1/10 w/v), centrifuged at 1000 g for 5 min and the supernatant was collected. […] The absorbance at 580 nm (A5801) was measured and 10 μl of cumene hydroperoxide (CHP, 1 mM) was added and the entirety was incubated for 30 min at ambient temperature. […]

Bax and Bcl-2 = Bax and Bcl-2 ELISA in hippocampus, Aβ25-35 oligomer neuroprotection design; assay type: in vivo, mice; details: 0.3 mg/Kg; for Bax protein levels in the hippocampus: compared to the intoxicated, untreated group (not shown)
Method: as §1, §2
Interleukin 6 (IL-6), a cytokine inflammatory marker, and the levels of the apoptosis markers Bcl2 and Bax proteins were measured in mouse hippocampi by the ELISA tests listed in Table 1 hereinbelow. Bcl2 is often referred to as an anti-apoptotic marker and Bax as a pro-apoptotic marker. Both hippocampi of 6-8 animals per condition were used. The tissues were homogenised after thawing in cell lysis buffer (1 mL, 3 IS007, Cloud-Clone) and sonicated on ice (2×10 s). After centrifugation (10,000 g, 5 min, 4° C.), the supernatants containing the markers to be measured were aliquoted and stored at −80° C. until the ELISA test was carried out according to the supplier's instructions. The results are expressed in ng of marker per mg of total protein and as a percentage of the control (mice not intoxicated with Aβ25-35 and not treated with the test compounds).

[2] = test system: Aβ25-35 oligomer-intoxicated mice; experiment: Morris water maze test, neuroprotection design; assay type: in vivo; details: 0.3 mg/Kg, probe test
Method: as §1
This test is used to assess long-term spatial reference memory. […] The animals' swimming behaviour was recorded (Videotrack® software, Viewpoint), and the trajectories, latencies and distances covered were measured. […] Median latency (time taken to find the platform) was calculated for each training day and expressed for the group as the mean latency±standard deviation. […] Each mouse was left in the water for 60 seconds and its swimming behaviour was recorded. The time spent in the north-eastern quadrant, which originally contained the platform (T), was measured and compared to the average time spent in the other quadrants (o).

NC12CC3CC(C1)CC(CCF)(C3)C2 [FENM, 3-(2-fluoroethyl)adamantan-1-amine]
IL-6 level in the hippocampus (IL-6): significantly lower than that of untreated, intoxicated mice | protective effect on latency in the passive avoidance test, effective doses [1]: procured neuroprotection as regards memory for all doses tested from 0.1 mg/Kg i.p. up to and including 3 mg/Kg | level of lipid peroxidation in the hippocampus (lipid peroxidation): level equivalent to that of the control group | Bax/Bcl-2 ratio in the hippocampus (Bax and Bcl-2): significantly decreased the Bax/BcI-2 ratio | Bax protein levels in the hippocampus (Bax and Bcl-2): significantly reduced | time spent in the training quadrant (learning and long-term spatial memory) [2]: maintained their learning and memory abilities

CC12CC3CC(C)(C1)CC(N)(C3)C2 [memantine, 3,5-Dimethyl-1-adamantanamine, reference compound]
IL-6 level in the hippocampus (IL-6): did not result in a significant decrease in IL-6 levels | protective effect on latency in the passive avoidance test, effective doses [1]: only observed at two of the doses tested (0.1 and 1 mg/Kg i.p.) | level of lipid peroxidation in the hippocampus (lipid peroxidation): did not significantly decrease the level of lipid peroxidation | Bax protein levels in the hippocampus (Bax and Bcl-2): significantly reduced | time spent in the training quadrant (learning and long-term spatial memory) [2]: did not prevent the impairment of learning and memory functions
